# From ChEMBL document CHEMBL1201862, “PubChem BioAssay data set” (2004)
# Active and inactive are the calls of the source.
# Columns and labels:
# [1] = target: T1, Carboxy-terminal domain RNA polymerase II polypeptide A small phosphatase 1 (Homo sapiens, UniProt Q9GZU7); test: CTDSP1 inhibitors, concentration-response, biochemical, absorbance readout, ultra-high-throughput screen actives (AID 540297); type: functional
# T1 sequence (Q9GZU7 whole entry): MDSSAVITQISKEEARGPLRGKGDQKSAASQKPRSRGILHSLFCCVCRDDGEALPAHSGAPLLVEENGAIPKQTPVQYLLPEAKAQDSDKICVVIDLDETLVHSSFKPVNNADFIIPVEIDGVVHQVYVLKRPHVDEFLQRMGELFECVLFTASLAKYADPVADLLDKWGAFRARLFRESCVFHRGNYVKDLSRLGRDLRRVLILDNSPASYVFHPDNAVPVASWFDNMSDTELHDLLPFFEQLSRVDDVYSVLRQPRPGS
# [2] = target: T2, Voltage-gated N-type calcium channel alpha-1B subunit/Amyloid beta A4 precursor protein-binding family A member 1 (Homo sapiens, UniProt Q00975+Q02410); type: protein assay
# [3] = target: Ephrin type-A receptor 4 (Mus musculus, UniProt Q03137); test: EphA4 ligand-binding antagonists – biochemical, colorimetric, mouse EphA4, primary screen (AID 689); type: functional
# [4] = target: Induced myeloid leukemia cell differentiation protein Mcl-1 (Homo sapiens, UniProt Q07820); type: functional
# [5] = target: Beta-2 adrenergic receptor (Homo sapiens, UniProt P07550); test: Dose response for HTS for Beta-2AR agonists via FAP method from Powderset3.; type: functional
# [6] = target: T2, Voltage-gated N-type calcium channel alpha-1B subunit/Amyloid beta A4 precursor protein-binding family A member 1; type: protein assay; remark: listed apart in the source
# [7] = target: T3, Matrix metalloproteinase-14 (Homo sapiens, UniProt P50281); test: SAR confirmation of uHTS hits for a small molecule inhibitors of MT1-MMP activation in a fluorescence assay.; type: functional
# [8] = target: T3, Matrix metalloproteinase-14; test: Dose Response confirmation of uHTS hits for a small molecule inhibitors of MT1-MMP activation in a fluorescence assay set 1.; type: functional
# [9] = target: T4, Beta-lactamase (Pseudomonas aeruginosa, UniProt Q79MP6); test: […] counterscreen for selective VIM-2 inhibitors: dose response biochemical high throughput screening assay to identify inhibitors of IMP-1 metallo-beta-lactamase.
# [10] = target: T5, Beta-lactamase (Salmonella choleraesuis (strain SC-B67), UniProt Q5J463); test: Epi-absorbance-based counterscreen for selective VIM-2 inhibitors: dose response biochemical high throughput screening assay to identify inhibitors of TEM-1 serine-beta-lactamase.
# [11] = target: T4, Beta-lactamase; test: inhibition of IMP-1 beta-lactamase activity – biochemical, epi-absorbance, selectivity assay for VIM-2 inhibitor project, dose response (AID 1920)
# [12] = target: T4, Beta-lactamase
# [13] = target: T5, Beta-lactamase
# [14] = target: Prothrombin (Bos taurus, UniProt P00735); test: thrombin protease inhibitors – biochemical, fluorescence polarization, uHTS hits, dose response (AID 602369); type: functional
# [15] = target: Albumin (Bos taurus, UniProt P02769); test: Counterscreen for inhibitors of T-cell receptor (TCR)-CD3 interaction: Fluorescence-based biochemical high throughput dose response assay to identify inhibitors of T-cell receptor (TCR)-CD3 interaction using a TAMRA-labeled BSA probe.; type: functional
# [16] = target: 72 kDa type IV collagenase (Homo sapiens, UniProt P08253); test: Dose Response validation of uHTS RPN11 inhibitor hits using a MMP-2 Fluorescence assay.; type: functional
# [17] = target: E3 ubiquitin-protein ligase XIAP (Homo sapiens, UniProt P98170); test: Counter Screen using XIAP-Bir3 for Chemical Antagonists of Bir1/2 domains of IAP-family anti-apoptotic proteins. [Related pubchem assays (depositor defined):AID1018, AID1449, AID1514, AID1638, AID1749, AID1750, AID488957, AID488963]
# [18] = target: T6, Small ubiquitin-related modifier 1 (Homo sapiens, UniProt P63165); test: SUMO1 protein interaction blockers, potency – biochemical, fluorescence polarization, uHTS hits, dose response (AID 624382); type: functional; settings: read-out: IC50_Mean
# [19] = target: RNA-editing ligase 1, mitochondrial (Trypanosoma brucei brucei, UniProt P86926); test: inhibition of trypanosome RNA editing ligase – biochemical, fluorescence, Trypanosoma brucei, dose response (AID 1117295); type: functional
# [20] = target: T6, Small ubiquitin-related modifier 1; test: SUMO1 protein-protein binding blockers, potency – biochemical, FRET, dose response (AID 624383); type: functional; settings: read-out: IC50_Mean
# [21] = target: 26S proteasome non-ATPase regulatory subunit 14 (Homo sapiens, UniProt O00487); test: inhibition of proteasome subunit RPN11 – biochemical, fluorescence polarization, uHTS hits, confirmation (AID 602368); type: functional
# [22] = target: Beta-galactosidase (Escherichia coli, UniProt Q8VNN2); test: Dose response counterscreen for EBI2 assay utilizing the enzyme, b-galactosidase.; type: functional
# [23] = target: Tyrosine-protein phosphatase non-receptor type 5 (Homo sapiens, UniProt P54829); test: PTPN5 enzyme inhibition – biochemical, fluorescence intensity, uHTS hits, confirmation (AID 602372); type: functional; settings: read-out: IC50_Mean
# [24] = target: T7, Tyrosine-protein phosphatase non-receptor type 22 (Homo sapiens, UniProt Q9Y2R2); test: lymphoid phosphatase LYP inhibitors – biochemical, selectivity assay for STEP inhibitor project, dose response (AID 624241); type: functional
# T7 sequence (Q9Y2R2 whole entry): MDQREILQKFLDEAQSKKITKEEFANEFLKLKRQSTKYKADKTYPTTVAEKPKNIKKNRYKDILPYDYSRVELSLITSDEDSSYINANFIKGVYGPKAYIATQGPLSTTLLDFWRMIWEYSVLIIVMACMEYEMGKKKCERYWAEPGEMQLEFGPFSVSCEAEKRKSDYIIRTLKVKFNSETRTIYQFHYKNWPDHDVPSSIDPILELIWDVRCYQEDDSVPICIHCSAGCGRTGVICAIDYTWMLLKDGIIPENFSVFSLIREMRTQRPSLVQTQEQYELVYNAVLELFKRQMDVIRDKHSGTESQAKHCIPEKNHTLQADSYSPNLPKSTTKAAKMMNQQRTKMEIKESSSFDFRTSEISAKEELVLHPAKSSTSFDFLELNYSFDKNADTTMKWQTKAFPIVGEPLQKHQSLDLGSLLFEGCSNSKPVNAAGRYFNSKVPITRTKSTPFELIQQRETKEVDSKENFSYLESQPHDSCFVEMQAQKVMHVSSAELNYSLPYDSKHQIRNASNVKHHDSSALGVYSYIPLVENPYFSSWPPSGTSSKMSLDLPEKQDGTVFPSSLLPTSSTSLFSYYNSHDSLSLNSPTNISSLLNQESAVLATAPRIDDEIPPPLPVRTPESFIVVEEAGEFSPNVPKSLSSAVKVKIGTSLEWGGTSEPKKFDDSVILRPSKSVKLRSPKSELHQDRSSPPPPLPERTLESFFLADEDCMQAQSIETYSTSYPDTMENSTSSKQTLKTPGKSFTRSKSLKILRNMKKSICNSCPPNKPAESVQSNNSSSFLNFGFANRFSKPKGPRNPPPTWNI
# [25] = target: Dual specificity protein phosphatase 3 (Homo sapiens, UniProt P51452); test: VHR phosphatase inhibition, dose response, selectivity assay for STEP inhibitor project, biochemical (AID 602374); type: functional; settings: read-out: IC50_Mean
# [26] = target: Tyrosine-protein phosphatase non-receptor type 11 (Homo sapiens, UniProt Q06124); test: PTPN11 enzyme inhibitors – biochemical, selectivity assay for STEP inhibitor project, dose response (AID 602367); type: functional; settings: read-out: IC50_Mean
# [27] = target: T8, Trace amine-associated receptor 1 (Homo sapiens, UniProt Q96RJ0); test: Counterscreen for agonists of the human trace amine associated receptor 1 (hTAAR1): Fluorescence-based cell-based high throughput dose response assay to identify hTAAR1 agonist that also desensitize TAAR1 receptor response.; type: functional
# [28] = cells; type: functional, cell-based
# [29] = cells; type: functional, cell-based; remark: listed apart in the source
# [30] = target: T8, Trace amine-associated receptor 1; test: Fluorescence-based cell-based high throughput dose response assay to identify agonists of the human trace amine associated receptor 1 (TAAR1).; type: functional
# [31] = target: Paired box protein Pax-8 (Homo sapiens, UniProt Q06710); test: PAX8 transcriptional activity inhibition in RMG-I – RMG-I cells, luciferase, cherry-pick, dose response (AID 687027); type: functional, cell-based;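 further: luciferase reporter driven by Pax8 target thyroperoxidase promoter measured by SteadyGlo luminescence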
# [32] = target: Cytochrome P450 2D6 (Homo sapiens, UniProt P10635);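 further: CYP2D6 member of a cytochrome P450 panel assay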
# [33] = cells; type: functional, cell-based; remark: listed apart in the source
# [34] = target: T9, Nuclear receptor subfamily 0 group B member 1 (Homo sapiens, UniProt P51843); type: functional, cell-based;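 further: HEK293T cells transfected with SF-1 and DAX-1 plus StAR promoter luciferase reporter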
# T9 sequence (P51843 whole entry): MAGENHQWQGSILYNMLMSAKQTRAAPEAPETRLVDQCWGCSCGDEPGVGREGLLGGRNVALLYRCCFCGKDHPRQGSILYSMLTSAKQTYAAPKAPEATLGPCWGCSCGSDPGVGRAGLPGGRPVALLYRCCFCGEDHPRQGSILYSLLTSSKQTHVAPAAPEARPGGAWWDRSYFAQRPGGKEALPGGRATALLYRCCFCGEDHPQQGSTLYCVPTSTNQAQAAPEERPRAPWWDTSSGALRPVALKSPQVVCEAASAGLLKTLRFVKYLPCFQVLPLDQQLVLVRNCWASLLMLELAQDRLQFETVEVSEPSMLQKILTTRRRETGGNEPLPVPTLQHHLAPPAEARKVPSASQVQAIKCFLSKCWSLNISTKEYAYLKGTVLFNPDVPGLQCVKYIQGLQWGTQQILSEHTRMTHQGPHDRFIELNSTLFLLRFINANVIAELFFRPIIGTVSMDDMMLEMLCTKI
# [35] = Luminescence-based dose response cell-based high throughput screening assay for cytotoxic compounds using the IEC-6 intestinal epithelial cell line. [Related pubchem assays: 1858 (Summary AID.), 1825 (Counterscreen.), 1907 (Confirmation screen.)]; type: functional
# [36] = test system: SN12K1; test: cells; type: functional; settings: Homo sapiens
# [37] = test system: P388/ADR; test: cells; type: functional; settings: Mus musculus
# [38] = test system: P388; test: cells; type: functional; settings: Mus musculus
# [39] = target: Cytochrome P450 2C9 (Homo sapiens, UniProt P11712)
# [40] = HEK-293T viability loss after treatment – luminescence, T-cell screen hits, cytotoxicity control for TCR NF-kB inhibitor project, dose response (AID 489026); type: functional, cell-based;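 further: cells exposed to compound about 14 hours before the viability readout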
# [41] = rise of 2N DNA cells, HeLa – IC50, dose response (AID 1117349); type: functional, cell-based
# T4 sequence (Q79MP6 whole entry): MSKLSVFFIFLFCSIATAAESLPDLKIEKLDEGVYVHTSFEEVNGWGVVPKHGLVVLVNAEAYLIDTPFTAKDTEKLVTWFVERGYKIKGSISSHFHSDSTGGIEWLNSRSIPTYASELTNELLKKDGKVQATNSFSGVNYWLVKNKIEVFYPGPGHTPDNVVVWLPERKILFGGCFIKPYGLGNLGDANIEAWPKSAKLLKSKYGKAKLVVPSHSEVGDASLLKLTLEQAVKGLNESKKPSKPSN
# T5 sequence (Q5J463 whole entry): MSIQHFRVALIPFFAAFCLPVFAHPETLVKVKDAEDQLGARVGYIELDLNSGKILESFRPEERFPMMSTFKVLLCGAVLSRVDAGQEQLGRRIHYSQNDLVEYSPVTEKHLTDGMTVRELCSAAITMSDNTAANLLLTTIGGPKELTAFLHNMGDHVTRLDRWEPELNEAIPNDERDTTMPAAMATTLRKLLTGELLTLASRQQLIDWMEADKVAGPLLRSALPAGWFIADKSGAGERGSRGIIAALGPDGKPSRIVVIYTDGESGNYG
# T2 sequence (Q00975 whole entry): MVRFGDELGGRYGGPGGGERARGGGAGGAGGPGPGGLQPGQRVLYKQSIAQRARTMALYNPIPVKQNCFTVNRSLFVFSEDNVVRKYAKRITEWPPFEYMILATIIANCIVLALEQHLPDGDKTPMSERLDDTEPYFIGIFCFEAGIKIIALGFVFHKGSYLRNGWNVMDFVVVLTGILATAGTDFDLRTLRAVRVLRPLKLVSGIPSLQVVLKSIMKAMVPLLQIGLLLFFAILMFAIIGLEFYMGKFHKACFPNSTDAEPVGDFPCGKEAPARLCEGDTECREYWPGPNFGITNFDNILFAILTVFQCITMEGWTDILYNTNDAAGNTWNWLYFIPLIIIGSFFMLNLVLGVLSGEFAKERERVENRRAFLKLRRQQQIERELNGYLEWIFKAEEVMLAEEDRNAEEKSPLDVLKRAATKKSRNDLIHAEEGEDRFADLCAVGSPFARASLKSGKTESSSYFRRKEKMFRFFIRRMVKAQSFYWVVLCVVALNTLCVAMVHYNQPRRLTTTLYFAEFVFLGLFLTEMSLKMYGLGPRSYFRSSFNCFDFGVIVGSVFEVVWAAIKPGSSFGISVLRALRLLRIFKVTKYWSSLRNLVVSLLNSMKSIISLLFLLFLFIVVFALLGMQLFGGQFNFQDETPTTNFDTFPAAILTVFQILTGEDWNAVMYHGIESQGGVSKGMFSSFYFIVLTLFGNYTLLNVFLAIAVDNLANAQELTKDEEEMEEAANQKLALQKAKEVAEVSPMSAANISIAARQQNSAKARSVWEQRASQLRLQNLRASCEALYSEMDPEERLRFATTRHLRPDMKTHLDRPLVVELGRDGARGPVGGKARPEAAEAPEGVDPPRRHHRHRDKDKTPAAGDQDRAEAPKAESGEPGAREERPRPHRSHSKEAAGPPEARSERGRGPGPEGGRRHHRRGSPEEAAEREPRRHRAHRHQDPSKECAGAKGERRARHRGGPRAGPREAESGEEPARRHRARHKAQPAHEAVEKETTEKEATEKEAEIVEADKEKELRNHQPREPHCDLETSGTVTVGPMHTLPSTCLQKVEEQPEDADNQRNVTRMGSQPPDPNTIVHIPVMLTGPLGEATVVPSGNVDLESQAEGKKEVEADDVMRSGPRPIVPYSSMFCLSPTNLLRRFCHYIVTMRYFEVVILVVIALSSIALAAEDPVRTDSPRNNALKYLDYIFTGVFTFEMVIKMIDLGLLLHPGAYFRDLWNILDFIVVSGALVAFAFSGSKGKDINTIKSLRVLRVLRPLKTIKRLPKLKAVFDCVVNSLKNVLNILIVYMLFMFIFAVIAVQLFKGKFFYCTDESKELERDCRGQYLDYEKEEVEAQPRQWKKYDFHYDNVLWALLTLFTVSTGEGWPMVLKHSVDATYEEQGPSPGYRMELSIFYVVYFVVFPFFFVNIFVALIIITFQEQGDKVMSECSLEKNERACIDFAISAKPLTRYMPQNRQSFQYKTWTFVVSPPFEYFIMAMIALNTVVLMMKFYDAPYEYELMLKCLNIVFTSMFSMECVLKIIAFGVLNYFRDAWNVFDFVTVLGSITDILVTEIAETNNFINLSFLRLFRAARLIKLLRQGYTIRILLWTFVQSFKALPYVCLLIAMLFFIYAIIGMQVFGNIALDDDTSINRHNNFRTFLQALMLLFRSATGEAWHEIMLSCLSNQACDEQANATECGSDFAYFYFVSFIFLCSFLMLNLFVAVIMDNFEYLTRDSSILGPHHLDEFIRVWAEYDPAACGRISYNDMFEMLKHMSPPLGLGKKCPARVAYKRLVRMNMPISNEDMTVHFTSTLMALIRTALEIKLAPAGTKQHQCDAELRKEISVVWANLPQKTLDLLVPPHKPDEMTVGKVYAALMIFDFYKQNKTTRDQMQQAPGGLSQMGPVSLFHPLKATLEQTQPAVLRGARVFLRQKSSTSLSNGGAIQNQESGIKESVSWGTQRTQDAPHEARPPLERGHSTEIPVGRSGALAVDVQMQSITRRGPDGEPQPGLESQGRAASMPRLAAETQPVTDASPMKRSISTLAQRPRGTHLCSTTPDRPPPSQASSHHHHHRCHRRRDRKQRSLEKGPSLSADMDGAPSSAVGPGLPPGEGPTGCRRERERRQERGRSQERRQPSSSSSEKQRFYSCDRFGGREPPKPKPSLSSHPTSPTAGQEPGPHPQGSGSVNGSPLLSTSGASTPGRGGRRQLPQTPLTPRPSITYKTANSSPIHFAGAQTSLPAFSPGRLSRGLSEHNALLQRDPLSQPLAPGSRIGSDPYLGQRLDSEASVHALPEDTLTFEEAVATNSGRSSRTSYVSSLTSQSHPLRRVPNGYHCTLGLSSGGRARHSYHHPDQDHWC
# T2 sequence (Q02410 whole entry): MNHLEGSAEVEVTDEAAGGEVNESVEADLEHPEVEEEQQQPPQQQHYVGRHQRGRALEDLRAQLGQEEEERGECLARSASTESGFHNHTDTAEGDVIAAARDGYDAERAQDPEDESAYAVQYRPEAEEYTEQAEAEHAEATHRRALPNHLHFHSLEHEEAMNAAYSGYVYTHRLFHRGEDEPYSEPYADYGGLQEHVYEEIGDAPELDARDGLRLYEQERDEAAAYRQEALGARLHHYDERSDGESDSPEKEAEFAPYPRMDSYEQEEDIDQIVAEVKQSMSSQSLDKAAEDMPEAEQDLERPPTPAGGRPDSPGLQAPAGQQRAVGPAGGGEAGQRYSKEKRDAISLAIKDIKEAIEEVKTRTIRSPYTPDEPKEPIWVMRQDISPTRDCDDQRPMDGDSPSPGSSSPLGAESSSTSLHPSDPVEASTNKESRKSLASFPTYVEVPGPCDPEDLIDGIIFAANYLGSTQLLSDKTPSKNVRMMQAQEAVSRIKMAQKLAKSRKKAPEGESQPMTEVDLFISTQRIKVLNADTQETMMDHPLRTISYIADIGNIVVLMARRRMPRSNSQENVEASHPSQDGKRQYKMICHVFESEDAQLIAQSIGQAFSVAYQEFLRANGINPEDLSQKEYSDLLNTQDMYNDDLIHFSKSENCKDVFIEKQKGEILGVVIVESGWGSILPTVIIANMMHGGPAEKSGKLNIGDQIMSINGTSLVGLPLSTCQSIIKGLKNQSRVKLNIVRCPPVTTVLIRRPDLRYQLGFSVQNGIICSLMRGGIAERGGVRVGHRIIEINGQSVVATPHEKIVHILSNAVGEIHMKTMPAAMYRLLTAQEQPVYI
# T6 sequence (P63165 whole entry): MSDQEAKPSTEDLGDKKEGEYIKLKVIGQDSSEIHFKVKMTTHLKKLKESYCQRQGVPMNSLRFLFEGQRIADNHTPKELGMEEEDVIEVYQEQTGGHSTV
# T8 sequence (Q96RJ0 whole entry): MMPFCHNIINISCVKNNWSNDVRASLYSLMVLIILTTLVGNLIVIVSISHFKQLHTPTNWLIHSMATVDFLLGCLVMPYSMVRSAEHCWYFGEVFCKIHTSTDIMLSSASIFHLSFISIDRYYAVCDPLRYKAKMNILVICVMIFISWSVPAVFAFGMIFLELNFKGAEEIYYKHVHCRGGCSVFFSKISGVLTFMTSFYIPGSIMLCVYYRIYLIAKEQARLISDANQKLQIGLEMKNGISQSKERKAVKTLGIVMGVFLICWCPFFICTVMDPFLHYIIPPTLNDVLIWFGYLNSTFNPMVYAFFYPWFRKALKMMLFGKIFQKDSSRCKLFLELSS
# Sequence of Induced myeloid leukemia cell differentiation protein Mcl-1 (Q07820 whole entry): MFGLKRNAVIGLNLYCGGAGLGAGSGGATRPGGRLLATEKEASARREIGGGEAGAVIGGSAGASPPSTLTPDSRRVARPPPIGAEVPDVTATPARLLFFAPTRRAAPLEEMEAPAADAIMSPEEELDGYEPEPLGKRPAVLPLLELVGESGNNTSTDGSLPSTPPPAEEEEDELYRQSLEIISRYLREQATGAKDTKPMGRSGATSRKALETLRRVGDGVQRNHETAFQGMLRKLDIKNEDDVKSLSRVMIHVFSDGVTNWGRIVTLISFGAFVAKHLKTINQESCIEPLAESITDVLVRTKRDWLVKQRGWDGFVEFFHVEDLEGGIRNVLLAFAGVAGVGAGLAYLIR
# Sequence of RNA-editing ligase 1, mitochondrial (P86926 whole entry): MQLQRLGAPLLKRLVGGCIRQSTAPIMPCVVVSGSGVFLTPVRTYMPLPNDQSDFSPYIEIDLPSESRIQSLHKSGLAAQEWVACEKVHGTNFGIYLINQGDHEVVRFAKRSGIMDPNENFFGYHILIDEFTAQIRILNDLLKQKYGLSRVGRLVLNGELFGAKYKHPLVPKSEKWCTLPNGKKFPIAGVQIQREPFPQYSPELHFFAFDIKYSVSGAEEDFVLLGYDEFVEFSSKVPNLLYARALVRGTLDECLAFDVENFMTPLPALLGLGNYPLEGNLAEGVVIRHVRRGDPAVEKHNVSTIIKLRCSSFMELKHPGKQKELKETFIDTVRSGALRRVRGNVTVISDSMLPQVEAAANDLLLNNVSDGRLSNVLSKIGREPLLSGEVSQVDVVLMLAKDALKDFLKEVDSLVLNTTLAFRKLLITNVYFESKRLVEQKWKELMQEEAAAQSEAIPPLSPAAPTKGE
smiles,measurement,setting,value
CSc1nc(SCCO)c2sc3nc(-c4ccco4)c4c(c3c2n1)CC(C)(C)OC4,IC50,[1],3.01 µM (active)
same,IC50,[2],14.3 µM (active)
same,IC50,[3],6.73 µM (active)
same,IC50,[4],1.54 µM (active)
same,EC50,[5],1.81 µM (active)
same,IC50,[6],> 56.8 µM (not active)
CCn1c(=O)c(=O)[nH]c2cc(C(=O)NC3CCCc4ccccc43)ccc21 (configuration not stated),IC50,[7],29.1 µM (inactive)
same,IC50,[8],26.7 µM (inactive)
Sc1nnc(-c2ccc3ccccc3n2)n1-c1ccc2c(c1)OCCO2,IC50,[9],> 59.6 µM (inactive)
same,IC50,[10],> 59.6 µM (inactive)
same,IC50,[11],> 59.6 µM (inactive)
Cn1cc(/C=C(\C(=O)O)C(C(=O)O)=C2CCCCC2)c2ccccc21,IC50,[12],> 59.6 µM (inactive)
same,IC50,[13],> 59.6 µM (inactive)
NS(=O)(=O)c1ccc(NC(=O)c2cccc(N3C(=O)c4ccccc4C3=O)c2)cc1,IC50,[14],> 100 µM (inactive)
same,IC50,[15],> 94.1 µM (inactive)
same,IC50,[16],> 100 µM (inactive)
same,IC50,[17],> 20 µM (inactive)
same,IC50,[18],> 66.6 µM (inactive)
same,IC50,[19],30.8 µM (inactive)
same,IC50,[20],14.4 µM (active)
same,IC50,[21],40.2 µM (active)
CCN1CCN(C(=O)/C=C/c2ccc(C)cc2)CC1,IC50,[22],> 80 µM (inactive)
O=C(O)CC/C(=N\Nc1ccc(S(=O)(=O)N2CCCC2)cc1[N+](=O)[O-])c1cccs1,IC50,[1],15.5 µM (active)
same,IC50,[23],19 µM (active)
same,IC50,[24],34.5 µM (inactive)
same,IC50,[25],15.6 µM (active)
same,IC50,[26],14.5 µM (active)
O=C(N[C@@H](Cc1cccnc1)C(=O)N1CCC[C@H]1C(=O)NCCc1ccccc1Cl)c1ccc(Cl)cc1Cl,IC50,[27],2.94 µM (active)
same,IC50,[28],> 29.9 µM (inactive)
same,EC50,[29],> 29.9 µM (inactive)
same,EC50,[30],4.03 µM (active)
COc1cc2c(c(OC)c1OC)-c1ccc(OC)c(=O)cc1[C@@H](NC(C)=O)CC2 [COLCHICINE],AC50,[31],< 0.26 µM (active)
same,AC50,[32],0.794 µM (active)
same,IC50,[33],> 67.6 µM (inactive)
same,IC50,[34],> 67.6 µM (inactive)
same,IC50,[35],0.0628 µM (active)
same,GI50,[36],< 0.0625 µM (active)
same,GI50,[37],1.36 µM (inactive)
same,GI50,[38],0.0625 µM (active)
same,AC50,[39],3.16 µM (active)
same,IC50,[40],> 80 µM (inactive)
same,IC50,[41],0.0017 µM (active)
